Assay results reported in US10760110B2, “Antibiotic testing and screening system” (priority 2017, dated 2020).
In brackets after ≈: the same amount, converted by molar mass. Where two headings read alike, the source gives them in different places.

Experiments:
[1] = tested on: K. pneumoniae NVT1001 ΔramRΔompK35/36 mutant and its revertants; assay: Etest MIC, ΔramRΔompK35/36 mutant and its revertants (Table 7); format: cell-based; conditions: Klebsiella pneumoniae
[2] = tested on: K. pneumoniae NVT1001 strains with carbapenemase plasmids; assay: Etest MIC of β-lactams, OmpK35/36 loss, ΔramR and/or carbapenemase (Table 9); format: cell-based, Klebsiella pneumoniae; conditions: for MIC: Klebsiella pneumoniae
Procedure: DNA fragments of the resistance genes along with their flanking regions were amplified from clinical plasmids via PCR with specific primer pairs. The resulting PCR fragments were digested and then cloned into the plasmid pACYC177 or pACYC184. The resulting plasmids were then transformed into K. pneumoniae strain NVT1001 via electroporation. The recombinant bacteria were plated onto LB agar plates containing kanamycin (50 mg/L) or chloramphenicol (50 mg/L), and the presence of the cloned gene was confirmed via PCR and DNA sequencing.
The MICs of antibiotics were determined using the Etest (Biodisk AB, Sweden) according to the manufacturer's instructions. The MICs from the Etest, which fall between standard two-fold dilutions, were rounded up to the next highest two-fold value. The MICs of ceftazidime and cefotaxime against K. pneumoniae NVT1001 harbouring the pACYC177 plasmid with blaOXA-48 were further determined using a broth microdilution test according to the recommendations of the CLSI,^25 and the results were interpreted according to the breakpoints established by the CLSI in 2017.^25 Meanwhile, due to the lack of CLSI breakpoints in 2016 and 2017, the results for cephalothin were interpreted according to the breakpoints established by the CLSI in 2015,^26 and the results for moxifloxacin were interpreted according to the breakpoints established by the EUCAST in 2017.^27

[3] = tested on: K. pneumoniae NVT1001 and its ΔompK35/36 and/or ΔramR mutants; assay: Etest MIC, OmpK35/36 loss and AcrAB-TolC overexpression (ΔramR) strains (Table 6); format: cell-based, Klebsiella pneumoniae; conditions: Klebsiella pneumoniae
Method in brief: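 Etest strips per kit instructions; off-scale intermediate readings rounded upward to the nearest two-fold concentration. Broth microdilution (CLSI) for ceftazidime, cefotaxime only. Breakpoints: CLSI 2017 generally, CLSI 2015 for cephalothin, EUCAST 2017 for moxifloxacin.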

[4] = ΔramRΔompK35/36::ompK35/36 revertant
[5] = ΔramRΔompK35/36::ompK35 revertant
[6] = ΔramRΔompK35/36::ompK36 revertant
[7] = ΔramRΔompK35/36::ramR revertant
[8] = ΔramRΔompK35/36::ramR::ompK35/36 revertant
[9] = ΔramRΔompK35/36::ramR::ompK35 revertant
[10] = ΔramRΔompK35/36::ramR::ompK36 revertant
[11] = ΔramRΔ35/36, ΔramRΔompK35/36 mutant

SMILES: C[C@H]1[C@H](NC(=O)/C(=N\OC(C)(C)C(=O)O)c2csc(N)n2)C(=O)N1S(=O)(=O)O [Aztreonam]
- MIC [1, 4]: 0.5 µg/mL
- MIC [1, 5]: 1 µg/mL
- MIC [1, 6]: 0.5 µg/mL
- MIC [1, 7]: 0.5 µg/mL
- MIC [1, 8]: 0.03 µg/mL
- MIC [1, 9]: 0.06 µg/mL
- MIC [1, 10]: 0.25 µg/mL
- MIC ([1]; ΔramRΔompK35/36 mutant): 1 µg/mL
- susceptibility category ([2]; IMP-8, NDM-1, VIM-1 and OXA-48 strains, with or without OmpK35/36 loss and/or ΔramR): susceptible
- MIC ([2]; IMP-8 on pACYC177, WT (NVT1001), read-out: MIC): 0.06 µg/mL
- MIC ([2]; IMP-8 on pACYC177, Δ35 (ΔompK35 mutant)): 0.25 µg/mL
- MIC ([2]; IMP-8 on pACYC177, Δ35/36 (ΔompK35/36 mutant)): 0.5 µg/mL
- MIC ([2]; IMP-8 on pACYC177, Δ36 (ΔompK36 mutant)): 0.06 µg/mL
- MIC ([2]; IMP-8 on pACYC177, ΔramR mutant): 0.5 µg/mL
- MIC ([2]; IMP-8 on pACYC177, ΔramRΔ35 (ΔramRΔompK35 mutant)): 0.5 µg/mL
- MIC ([2]; IMP-8 on pACYC177, ΔramRΔ35/36 (ΔramRΔompK35/36 mutant)): 0.5 µg/mL
- MIC ([2]; IMP-8 on pACYC177, ΔramRΔ36 (ΔramRΔompK36 mutant)): 0.5 µg/mL
- MIC ([2]; KPC-2 on pACYC177, WT (NVT1001), read-out: MIC): > 256 µg/mL
- MIC ([2]; KPC-2 on pACYC177, Δ35 (ΔompK35 mutant)): > 256 µg/mL
- MIC ([2]; KPC-2 on pACYC177, Δ35/36 (ΔompK35/36 mutant)): > 256 µg/mL
- MIC ([2]; KPC-2 on pACYC177, Δ36 (ΔompK36 mutant)): 256 µg/mL
- MIC ([2]; KPC-2 on pACYC177, ΔramR mutant): > 256 µg/mL
- MIC ([2]; KPC-2 on pACYC177, ΔramRΔ35 (ΔramRΔompK35 mutant)): > 256 µg/mL
- MIC ([2]; KPC-2 on pACYC177, ΔramRΔ35/36 (ΔramRΔompK35/36 mutant)): > 256 µg/mL
- MIC ([2]; KPC-2 on pACYC177, ΔramRΔ36 (ΔramRΔompK36 mutant)): > 256 µg/mL
- MIC ([2]; KPC-3 on pACYC177, WT (NVT1001), read-out: MIC): > 256 µg/mL
- MIC ([2]; KPC-3 on pACYC177, Δ35 (ΔompK35 mutant)): > 256 µg/mL
- MIC ([2]; KPC-3 on pACYC177, Δ35/36 (ΔompK35/36 mutant)): > 256 µg/mL
- MIC ([2]; KPC-3 on pACYC177, Δ36 (ΔompK36 mutant)): > 256 µg/mL
- MIC ([2]; KPC-3 on pACYC177, ΔramR mutant): > 256 µg/mL
- MIC ([2]; KPC-3 on pACYC177, ΔramRΔ35 (ΔramRΔompK35 mutant)): > 256 µg/mL
- MIC ([2]; KPC-3 on pACYC177, ΔramRΔ35/36 (ΔramRΔompK35/36 mutant)): > 256 µg/mL
- MIC ([2]; KPC-3 on pACYC177, ΔramRΔ36 (ΔramRΔompK36 mutant)): > 256 µg/mL
- MIC ([2]; NDM-1 on pACYC177, WT (NVT1001), read-out: MIC): 0.06 µg/mL
- MIC ([2]; NDM-1 on pACYC177, Δ35 (ΔompK35 mutant)): 0.25 µg/mL
- MIC ([2]; NDM-1 on pACYC177, Δ35/36 (ΔompK35/36 mutant)): 0.5 µg/mL
- MIC ([2]; NDM-1 on pACYC177, Δ36 (ΔompK36 mutant)): 0.06 µg/mL
- MIC ([2]; NDM-1 on pACYC177, ΔramR mutant): 0.5 µg/mL
- MIC ([2]; NDM-1 on pACYC177, ΔramRΔ35 (ΔramRΔompK35 mutant)): 0.5 µg/mL
- MIC ([2]; NDM-1 on pACYC177, ΔramRΔ35/36 (ΔramRΔompK35/36 mutant)): 0.5 µg/mL
- MIC ([2]; NDM-1 on pACYC177, ΔramRΔ36 (ΔramRΔompK36 mutant)): 0.5 µg/mL
- MIC ([2]; OXA-48 on pACYC177, WT (NVT1001), read-out: MIC): 0.06 µg/mL
- MIC ([2]; OXA-48 on pACYC177, Δ35 (ΔompK35 mutant)): 0.25 µg/mL
- MIC ([2]; OXA-48 on pACYC177, Δ35/36 (ΔompK35/36 mutant)): 0.5 µg/mL
- MIC ([2]; OXA-48 on pACYC177, Δ36 (ΔompK36 mutant)): 0.125 µg/mL
- MIC ([2]; OXA-48 on pACYC177, ΔramR mutant): 0.5 µg/mL
- MIC ([2]; OXA-48 on pACYC177, ΔramRΔ35 (ΔramRΔompK35 mutant)): 0.5 µg/mL
- MIC ([2]; OXA-48 on pACYC177, ΔramRΔ35/36 (ΔramRΔompK35/36 mutant)): 0.5 µg/mL
- MIC ([2]; OXA-48 on pACYC177, ΔramRΔ36 (ΔramRΔompK36 mutant)): 0.5 µg/mL
- MIC ([2]; VIM-1 on pACYC177, WT (NVT1001), read-out: MIC): 0.06 µg/mL
- MIC ([2]; VIM-1 on pACYC177, Δ35 (ΔompK35 mutant)): 0.25 µg/mL
- MIC ([2]; VIM-1 on pACYC177, Δ35/36 (ΔompK35/36 mutant)): 0.5 µg/mL
- MIC ([2]; VIM-1 on pACYC177, Δ36 (ΔompK36 mutant)): 0.06 µg/mL
- MIC ([2]; VIM-1 on pACYC177, ΔramR mutant): 0.5 µg/mL
- MIC ([2]; VIM-1 on pACYC177, ΔramRΔ35 (ΔramRΔompK35 mutant)): 0.5 µg/mL
- MIC ([2]; VIM-1 on pACYC177, ΔramRΔ35/36 (ΔramRΔompK35/36 mutant)): 1 µg/mL
- MIC ([2]; VIM-1 on pACYC177, ΔramRΔ36 (ΔramRΔompK36 mutant)): 1 µg/mL
- MIC ([2]; no supplemental plasmid, WT (NVT1001), read-out: MIC): 0.03 µg/mL
- MIC ([2]; no supplemental plasmid, Δ35 (ΔompK35 mutant)): 0.25 µg/mL
- MIC ([2]; no supplemental plasmid, Δ35/36 (ΔompK35/36 mutant)): 0.5 µg/mL
- MIC ([2]; no supplemental plasmid, Δ36 (ΔompK36 mutant)): 0.06 µg/mL
- MIC ([2]; no supplemental plasmid, ΔramR mutant): 0.5 µg/mL
- MIC ([2]; no supplemental plasmid, ΔramRΔ35 (ΔramRΔompK35 mutant)): 0.5 µg/mL
- MIC ([2]; no supplemental plasmid, ΔramRΔ35/36 (ΔramRΔompK35/36 mutant)): 1 µg/mL
- MIC ([2]; no supplemental plasmid, ΔramRΔ36 (ΔramRΔompK36 mutant)): 1 µg/mL
- MIC ([3]; WT, NVT1001, read-out: MIC): 0.03 µg/mL (≈ 0.0689 µM)
- MIC ([3]; Δ35, ΔompK35 mutant): 0.25 µg/mL (≈ 0.574 µM)
- MIC ([3]; Δ35/36, ΔompK35/36 mutant): 0.5 µg/mL (≈ 1.15 µM)
- MIC ([3]; Δ36, ΔompK36 mutant): 0.06 µg/mL (≈ 0.138 µM)
- MIC ([3]; ΔramR mutant): 0.5 µg/mL (≈ 1.15 µM)
- MIC ([3]; ΔramRΔ35, ΔramRΔompK35 mutant): 0.5 µg/mL (≈ 1.15 µM)
- MIC [3, 11]: 1 µg/mL (≈ 2.3 µM)
- MIC ([3]; ΔramRΔ36, ΔramRΔompK36 mutant): 1 µg/mL (≈ 2.3 µM)

SMILES: C[C@H]1COc2c(N3CCN(C)CC3)c(F)cc3c(=O)c(C(=O)O)cn1c23 [Levofloxacin, levofloxacin]
- MIC [1, 4]: 0.5 µg/mL
- MIC [1, 5]: 1 µg/mL
- MIC [1, 6]: 0.5 µg/mL
- MIC [1, 7]: 0.125 µg/mL
- MIC [1, 8]: 0.06 µg/mL
- MIC [1, 9]: 0.06 µg/mL
- MIC [1, 10]: 0.125 µg/mL
- MIC ([1]; ΔramRΔompK35/36 mutant): 1 µg/mL
- MIC ([3]; WT, NVT1001, read-out: MIC): 0.06 µg/mL (≈ 0.166 µM)
- MIC ([3]; Δ35, ΔompK35 mutant): 0.125 µg/mL (≈ 0.346 µM)
- MIC ([3]; Δ35/36, ΔompK35/36 mutant): 0.125 µg/mL (≈ 0.346 µM)
- MIC ([3]; Δ36, ΔompK36 mutant): 0.125 µg/mL (≈ 0.346 µM)
- MIC ([3]; ΔramR mutant): 1 µg/mL (≈ 2.77 µM)
- MIC ([3]; ΔramRΔ35, ΔramRΔompK35 mutant): 1 µg/mL (≈ 2.77 µM)
- MIC [3, 11]: 1 µg/mL (≈ 2.77 µM)
- MIC ([3]; ΔramRΔ36, ΔramRΔompK36 mutant): 1 µg/mL (≈ 2.77 µM)

SMILES: COc1c(N2C[C@@H]3CCCN[C@@H]3C2)c(F)cc2c(=O)c(C(=O)O)cn(C3CC3)c12 [Moxifloxacin, moxifloxacin]
- MIC [1, 4]: 0.5 µg/mL
- MIC [1, 5]: 1 µg/mL
- MIC [1, 6]: 0.5 µg/mL
- MIC [1, 7]: 0.06 µg/mL
- MIC [1, 8]: 0.125 µg/mL
- MIC [1, 9]: 0.06 µg/mL
- MIC [1, 10]: 0.125 µg/mL
- MIC ([1]; ΔramRΔompK35/36 mutant): 1 µg/mL
- MIC ([3]; WT, NVT1001, read-out: MIC): 0.125 µg/mL (≈ 0.311 µM)
- MIC ([3]; Δ35, ΔompK35 mutant): 0.125 µg/mL (≈ 0.311 µM)
- MIC ([3]; Δ35/36, ΔompK35/36 mutant): 0.125 µg/mL (≈ 0.311 µM)
- MIC ([3]; Δ36, ΔompK36 mutant): 0.06 µg/mL (≈ 0.149 µM)
- MIC ([3]; ΔramR mutant): 1 µg/mL (≈ 2.49 µM)
- MIC ([3]; ΔramRΔ35, ΔramRΔompK35 mutant): 1 µg/mL (≈ 2.49 µM)
- MIC [3, 11]: 1 µg/mL (≈ 2.49 µM)
- MIC ([3]; ΔramRΔ36, ΔramRΔompK36 mutant): 1 µg/mL (≈ 2.49 µM)
